# Measurements from patent US5459236A, “Vasoactive vasotocin derivatives” (Ferring AB, priority 1990, dated 1995).
# Experiments:
# [1] = test system: anaesthetised water-loaded Sprague Dawley rats; experiment: Antidiuretic potency test, 4-point test against standard AVP; type: in vivo; conditions: maximal increase of urine conductivity after intravenous injection, 4-point test vs AVP
# Text: (§1) Vasotocin derivatives according to the invention have been tested for potency of both blood pressure and antidiuretic activity in a so-called 4-point test, i.e. the activity of the test substances has been related to a standard preparation (AVP=argininevasopressin), and the effects of two dose levels for each substance have been analysed. In addition, three pressor-specific VT derivatives according to our previous application SE 8703855-0 have been tested for a comparison, namely 1-Hmp-2-Phe-S-Orn-VT (compound 2 in Table 1), 1-Hmp-2-Phe-S-Dab-VT (compound 3 in Table 1), and 1-Hmp-2-Phe-S-Dab(Ala)-VT (compound 5 in Table 1).
# Antidiuretic potency was determined with the aid of anaesthetised water-loaded Sprague Dawley rats (200 g) (Larsson, L. E., Lindeberg, G., Melin, P. and Pliska, V., 1978, J. Mad. Chem. 21, 353). Maximal increase of urine conductivity after intravenous injections was used as effect parameter.
# (§2) In these two tests, a comparison was made between the effects of the respective derivative and the effect of a standard preparation, AVP, and potency was determined with the aid of a 4-point test and is indicated in international units per micromole (IU/μmole) (Sturmer, E., in Handbook of Expermimental Pharmacology, 1966, Vol 23, pp 130-189).
# [2] = test system: anaesthetised Sprague Dawley rats, previously treated with dibenamine; experiment: Blood pressure (pressor) test, 4-point test against standard AVP; type: in vivo
# Text: as §1
# Blood pressure tests were carried out on anaesthetised Sprague Dawley rats (about 250 g), previously treated with dibenamine (Dekanski, J., 1952. Br. J. Pharmacol. 7, 567). Maximal blood pressure increase after intravenous injections of peptide was used as a measure of the effect, expressed as intensity.
# In addition to potency determination based-on effect intensity, a measure of the length of the effect has been stated (index of persistence (I.P.), Pliska, V., 1966. Arzheim. Forech. 16, 886). This dimensionless factor is a measure of the effect duration of the respective analog in relation to the standard AVP.
# as §2
# The specificity in respect of blood pressure is indicated by the ratio of potency blood pressure/potency antidiuresis (BP/AD).
compound,measurement,setting,value
"NC(=O)CC[C@@H]1NC(=O)[C@H](Cc2ccccc2)NC(=O)[C@H](Cc2ccc(O)cc2)NC(=O)[C@@H](N)CSSC[C@@H](C(=O)N2CCC[C@H]2C(=O)N[C@@H](CCCN=C(N)N)C(=O)NCC(N)=O)NC(=O)[C@H](CC(N)=O)NC1=O [AVP, argininevasopressin]",ANTIDIURESIS AD potency,[1],620 ± 54 IU/μmole
same,"BLOOD PRESSURE BP I.P (measure of duration of effect), index of persistence","[2]; dimensionless, effect duration in relation to the standard AVP, intravenous",1.0
same,BLOOD PRESSURE BP potency,"[2]; maximal blood pressure increase after intravenous injection, 4-point test vs AVP, anaesthetised rats",614 ± 25 IU/μmole
same,BP/AD (measure of specificity),[2]; ratio of potency blood pressure/potency antidiuresis,1.0
